Experiments:
Mhp1 = target: T1, Mhp1 (Microbacterium maritypicum, UniProt D6R8X8); assay: tryptophan fluorescence quenching titration; assay type: binding
T1 construct: gene hyuP; His-tagged (Ni-NTA, HisProbe blot), expressed in E. coli inner membranes, solubilized in DDM or trapped in A8-35
T1 sequence (D6R8X8 1-489): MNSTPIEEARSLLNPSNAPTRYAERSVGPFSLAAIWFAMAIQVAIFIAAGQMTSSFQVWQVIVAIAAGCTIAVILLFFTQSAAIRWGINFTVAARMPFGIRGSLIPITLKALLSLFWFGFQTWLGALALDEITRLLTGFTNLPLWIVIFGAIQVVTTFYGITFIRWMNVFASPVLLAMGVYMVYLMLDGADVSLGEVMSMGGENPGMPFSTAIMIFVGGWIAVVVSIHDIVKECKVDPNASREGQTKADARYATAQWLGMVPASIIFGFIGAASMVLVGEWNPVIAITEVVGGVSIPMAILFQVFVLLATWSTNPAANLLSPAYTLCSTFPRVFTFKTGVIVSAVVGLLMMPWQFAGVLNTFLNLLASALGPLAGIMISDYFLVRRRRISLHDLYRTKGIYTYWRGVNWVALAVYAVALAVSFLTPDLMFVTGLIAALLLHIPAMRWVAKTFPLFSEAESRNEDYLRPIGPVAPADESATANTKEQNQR
Method: tryptophan fluorescence quenching titration on Mhp1 | The activity of Mhp1 was evaluated by monitoring binding to L-benzylhydantoin, a known ligand

GalP = target: T2, GalP (Escherichia coli, UniProt P0AEP1); assay: tryptophan fluorescence quenching titration; assay type: binding
T2 construct: His-tagged (Ni-NTA, HisProbe blot), expressed in E. coli inner membranes, solubilized in DDM or trapped in A8-35
T2 sequence (P0AEP1 1-464): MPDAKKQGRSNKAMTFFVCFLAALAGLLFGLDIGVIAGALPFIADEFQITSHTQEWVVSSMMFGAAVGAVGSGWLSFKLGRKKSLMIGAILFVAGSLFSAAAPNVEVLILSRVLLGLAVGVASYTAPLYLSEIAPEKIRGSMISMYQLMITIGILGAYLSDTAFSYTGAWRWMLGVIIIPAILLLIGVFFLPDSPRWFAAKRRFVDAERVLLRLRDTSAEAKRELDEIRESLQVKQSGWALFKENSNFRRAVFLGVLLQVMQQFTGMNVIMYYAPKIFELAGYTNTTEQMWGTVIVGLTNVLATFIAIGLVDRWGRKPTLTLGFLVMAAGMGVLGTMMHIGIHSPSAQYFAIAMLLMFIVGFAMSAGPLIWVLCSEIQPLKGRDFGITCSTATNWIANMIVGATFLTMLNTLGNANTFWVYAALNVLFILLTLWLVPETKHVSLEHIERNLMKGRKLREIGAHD
Method: tryptophan fluorescence quenching titration on GalP | GalP activity was assessed by monitoring binding to the small molecule inhibitor forskolin

Kd (Mhp1)	Kd (GalP)	Structure (SMILES)
17.6 ± 1.8 µM	–	O=C1NC(=O)[C@H](Cc2ccccc2)N1 [L-benzylhydantoin]
–	63 ± 19 µM	C=C[C@@]1(C)CC(=O)[C@]2(O)[C@@]3(C)[C@@H](O)CCC(C)(C)[C@@H]3[C@H](O)[C@H](OC(C)=O)[C@@]2(C)O1 [forskolin]

From article PMC4636139, “Amphipols Outperform Dodecylmaltoside Micelles in Stabilizing Membrane Protein Structure in the Gas Phase” (Analytical Chemistry, 2014)
